Each structure is given as a SMILES string.

A short description of the assay: Antioxidant screening: prevention or retardation of air oxidation of anthralin, hydroquinone or banana peel. As to conditions: screening methods: air oxidation of anthralin. How it is done: The antioxidant property of some hydroxyacids, polyhydroxy acids and lactones are determined as follows. Oxidation by definition is removal of electrons or addition of oxygen. An antioxidant can be defined as a substance capable of preventing or inhibiting oxidation, or capable of disposing, scavenging, or suppressing formation or actions of peroxide, superoxide or free radicals. We have developed three simple assays to determine if a substance is an antioxidant or not. The antioxidant property is determined by using one of the following screening methods: prevention or retardation of air oxidation of (a) anthralin, (b) hydroquinone, or (c) banana peel. A freshly prepared anthralin solution or cream is bright yellow, and an air oxidized one is brownish or black. A hydroquinone solution or cream is colorless or white color, and an air-oxidized one is brownish or black. A freshly peeled banana peel is light yellow in color, and an oxidized one ranges in color from tan, dark tan, brown to brownish black.
Known antioxidants such as vitamin C and N-acetylcysteine may be used as the positive control in these screening methods.
As to `O=C1O[C@H]([C@@H](O)CO)C(O)=C1O` [ascorbic acid], the antioxidant property entry is on record as “antioxidants”.
The entry for `O=C(O)CC(O)(CC(=O)O)C(=O)O` [citric acid] is “antioxidants”.
Next, `O=C1O[C@@H]([C@H](O)CO)[C@H](O)[C@H]1O` [galactonolactone]: “antioxidants”; `O=C(O)[C@@H](O)[C@H]1OC(=O)[C@H](O)[C@H]1O` [glucarolactone]: “antioxidants”.
Next, `O=C1O[C@@H]([C@H](O)[C@H](O)CO)[C@@H](O)C1O` (stereo partly shown) [glucoheptonolactone]: “antioxidants”; `O=C(O)[C@H](O)[C@@H](O)[C@H](O)[C@H](O)CO` [gluconic acid]: “antioxidants”; `O=C1O[C@H](CO)[C@@H](O)[C@H](O)[C@H]1O` [gluconolactone]: “antioxidants”.
For the compound `O=C[C@H](O)[C@H]1OC(=O)[C@@H](O)[C@H]1O` [glucuronolactone], the antioxidant property entry was “antioxidants”.
On to `O=C1O[C@H]([C@H](O)CO)C(O)=C1O` [isoascorbic acid], for which the antioxidant property entry is recorded as “antioxidants”.
The entry for `O=C(O)CC(C(=O)O)C(O)C(=O)O` (stereo not shown) [isocitric acid] is “antioxidants”.
Next, `O=C(O)CC(O)C(=O)O` (stereo not shown) [malic acid]: “antioxidants”; `O=C1O[C@H](CO)[C@@H](O)[C@H]1O` [ribonolactone]: “antioxidants”.
The entry for `O=C(O)C(O)C(=O)O` [tartronic acid] is “antioxidants”.
